Calls of active or inactive are those of the source. No cut-off for these calls is given here.
Columns and labels:
HeLa [1] = assay: Induction of apoptosis in human HeLa cells assessed as late apoptotic cells incubated at 6 uM for 24 hrs measured by annexin V-PI staining based FITC analysis (reference value: 1.81%); type: functional
HeLa [2] = assay: Induction of apoptosis in human HeLa cells assessed as early apoptotic cells incubated at 6 uM for 24 hrs measured by annexin V-PI staining based FITC analysis (reference value: 3.59%); type: functional
B16-F10 [3] = assay: Induction of ferroptosis in mouse B16-F10 cells assessed as downregulation of GPX4 level measured at 4 to 10 uM by Western blotting analysis; type: functional, cell-based; details: dose 4-10 µM
B16-F10 [4] = assay: Antitumor activity against mouse B16-F10 cells allografted in immunocompetent C57BL/6J mouse assessed as reduction of tumor growth administered at 30 mg/kg, ip daily for 14 days (reference value: 1500 mm^3); type: functional; details: time 14 day
[5] = Toxicity in immunocompetent C57BL/6J mouse allografted with B16-F10 cells assessed as change of organ index in lungs administered at 30 mg/kg, ip daily for 14 days by hematoxylin and eosin staining analysis; type: organism-based; details: in vivo, 336 h, time 14 day
HeLa [6] = assay: Induction of ferroptosis in human HeLa cells assessed as increase of ACSL4 level measured at 4 to 10 uM for 24 hrs by Western blotting analysis; type: functional, cell-based; details: dose 4-10 µM
[7] = Toxicity in immunocompetent C57BL/6J mouse allografted with B16-F10 cells assessed as change of organ index in thymus administered at 30 mg/kg, ip daily for 14 days by hematoxylin and eosin staining analysis; type: organism-based; details: in vivo, 336 h, time 14 day
HeLa [8] = assay: Induction of apoptosis in human HeLa cells assessed as viable cells preincubated with PFTalpha followed by compound addition at 10 uM for 24 hrs measured by annexin V-PI staining based FITC analysis (reference value: 94.2%); type: functional; details: read-out: Activity
[9] = Toxicity in immunocompetent C57BL/6J mouse allografted with B16-F10 cells assessed as change of organ index in heart administered at 30 mg/kg, ip daily for 14 days by hematoxylin and eosin staining analysis; type: organism-based; details: in vivo, 336 h, time 14 day
[10] = Toxicity in immunocompetent C57BL/6J mouse allografted with B16-F10 cells assessed as tissue damage in thymus administered at 30 mg/kg, ip daily for 14 days by hematoxylin and eosin staining analysis; type: organism-based; details: in vivo, 336 h, time 14 day
HeLa [11] = assay: Induction of apoptosis in human HeLa cells assessed as early apoptotic cells incubated at 10 uM for 24 hrs measured by annexin V-PI staining based FITC analysis (reference value: 2.72%); type: functional
HeLa [12] = assay: Induction of ferroptosis in human HeLa cells assessed as decrease in cellular GSH level measured at 4 uM for 24 hrs by transmission electron microscopic analysis; type: functional, cell-based
HeLa [13] = assay: Induction of ROS generation in human HeLa cells assessed as increase in ROS level at 10 uM incubated for 0.5 hrs (reference value: 39.6%); type: functional
[14] = Toxicity in immunocompetent C57BL/6J mouse allografted with B16-F10 cells assessed as tissue damage in lungs administered at 30 mg/kg, ip daily for 14 days by hematoxylin and eosin staining analysis; type: organism-based; details: in vivo, 336 h, time 14 day
HeLa [15] = assay: Induction of ROS generation in human HeLa cells assessed as increase in ROS level at 20 uM incubated for 0.5 hrs (reference value: 39.6%); type: functional
HeLa [16] = assay: Induction of ROS generation in human HeLa cells assessed as increase in ROS level at 10 uM incubated for 1 hrs (reference value: 39.6%); type: functional
HeLa [17] = assay: Induction of apoptosis in human HeLa cells assessed as necrotic cells incubated at 8 uM for 24 hrs measured by annexin V-PI staining based FITC analysis (reference value: 0.70%); type: functional
HeLa [18] = assay: Induction of apoptosis in human HeLa cells assessed as late apoptotic cells incubated at 4 uM for 24 hrs measured by annexin V-PI staining based FITC analysis (reference value: 1.81%); type: functional
HeLa [19] = assay: Induction of apoptosis in human HeLa cells assessed as early apoptotic cells incubated at 10 uM for 24 hrs measured by annexin V-PI staining based FITC analysis (reference value: 3.59%); type: functional
HeLa [20] = assay: Induction of ROS generation in human HeLa cells assessed as increase in ROS level at 20 uM incubated for 1 hrs (reference value: 39.6%); type: functional
HeLa [21] = assay: Induction of ferroptosis in human HeLa cells assessed as disappearance of mitochondrial cristae measured at 6 uM for 24 hrs by transmission electron microscopic analysis; type: functional, cell-based
HeLa [22] = assay: Induction of apoptosis in human HeLa cells assessed as viable cells incubated at 10 uM for 24 hrs measured by annexin V-PI staining based FITC analysis (reference value: 91.6%); type: functional; details: read-out: Activity
HeLa [23] = assay: Induction of apoptosis in human HeLa cells assessed as necrotic cells incubated at 6 uM for 24 hrs measured by annexin V-PI staining based FITC analysis (reference value: 0.58%); type: functional
HeLa [24] = assay: Induction of ferroptosis in human HeLa cells assessed as decrease in cellular GSH level measured at 6 uM for 24 hrs by transmission electron microscopic analysis; type: functional, cell-based
HeLa [25] = assay: Induction of apoptosis in human HeLa cells assessed as late apoptotic cells incubated at 6 uM for 24 hrs measured by annexin V-PI staining based FITC analysis (reference value: 1.54%); type: functional
HeLa [26] = assay: Induction of apoptosis in human HeLa cells assessed as late apoptotic cells incubated at 10 uM for 24 hrs measured by annexin V-PI staining based FITC analysis (reference value: 3.45%); type: functional
HeLa [27] = assay: Induction of apoptosis in human HeLa cells assessed as late apoptotic cells incubated at 4 uM for 24 hrs measured by annexin V-PI staining based FITC analysis (reference value: 1.54%); type: functional
HeLa [28] = assay: Induction of apoptosis in human HeLa cells assessed as necrotic cells incubated at 8 uM for 24 hrs measured by annexin V-PI staining based FITC analysis (reference value: 0.58%); type: functional
HeLa [29] = assay: Induction of apoptosis in human HeLa cells assessed as viable cells preincubated with PFTalpha followed by compound addition at 10 uM for 24 hrs measured by annexin V-PI staining based FITC analysis (reference value: 91.6%); type: functional; details: read-out: Activity
HeLa [30] = assay: Induction of apoptosis in human HeLa cells assessed as early apoptotic cells incubated at 8 uM for 24 hrs measured by annexin V-PI staining based FITC analysis (reference value: 3.94%); type: functional

CCC/C=C/C=C/C(=O)O[C@@H]1C[C@H]2[C@@H](CCCC[C@H](O)CCC)CCC[C@H]2N[C@H]1C
Activity (HeLa [1]): 3.94%
Activity (HeLa [2]): 6.71%
Activity (B16-F10 [3]): Active
Activity (B16-F10 [4]): <500 mm3
Activity [5]: Non-Toxic
Activity (HeLa [6]): Active
Activity [7]: Non-Toxic
viability at 10 µM (HeLa [8]): 46%
Activity [9]: Non-Toxic
Activity [10]: Non-Toxic
Activity (HeLa [11]): 31.8%
Activity (HeLa [12]): Active
Activity (HeLa [13]): 77.7%
Activity [14]: Non-Toxic
Activity (HeLa [15]): 84.4%
Activity (HeLa [16]): 81.5%
Activity (HeLa [17]): 0.5%
Activity (HeLa [18]): 2.52%
Activity (HeLa [19]): 66.3%
Activity (HeLa [20]): 90.1%
Activity (HeLa [21]): Active

CCCCC/C=C/C(=O)O[C@@H]1C[C@H]2[C@@H](CCCC[C@H](O)CCC)CCC[C@H]2N[C@H]1C
viability at 10 µM (HeLa [22]): 28%
Activity (HeLa [23]): 0.85%
Activity (HeLa [24]): Active
Activity (HeLa [25]): 3.62%
Activity (HeLa [26]): 31.4%
Activity (HeLa [27]): 2.73%
Activity (HeLa [28]): 3.09%
viability at 10 µM (HeLa [29]): 36.4%
Activity (HeLa [30]): 20.9%

From ChEMBL document CHEMBL5360653, “Marine Alkaloid Lepadins E and H Induce Ferroptosis for Cancer Chemotherapy” (J Med Chem, 2023)
